These results are taken from US4968792A, “Psychotropic benzisothiazole derivatives” (American Home Products Corporation, priority 1989, dated 1990).

The target in experiment [1] is T1, serotonin 5-HT1A receptor (Rattus norvegicus, UniProt P19327).
T1 construct: following the procedure of Hall et al., J. Neurochem; 44, 1685 (1985); from tissue
T1 sequence (P19327 1-422): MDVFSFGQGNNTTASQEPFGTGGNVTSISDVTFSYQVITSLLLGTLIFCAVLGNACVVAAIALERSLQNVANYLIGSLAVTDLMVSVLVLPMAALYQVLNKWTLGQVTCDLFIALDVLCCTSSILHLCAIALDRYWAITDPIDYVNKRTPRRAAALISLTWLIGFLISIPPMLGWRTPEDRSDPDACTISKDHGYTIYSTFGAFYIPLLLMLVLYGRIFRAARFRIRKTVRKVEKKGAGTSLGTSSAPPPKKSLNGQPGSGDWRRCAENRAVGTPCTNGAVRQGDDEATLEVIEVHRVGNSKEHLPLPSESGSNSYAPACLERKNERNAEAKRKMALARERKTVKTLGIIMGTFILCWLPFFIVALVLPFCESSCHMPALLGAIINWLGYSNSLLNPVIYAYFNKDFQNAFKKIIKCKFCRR
Nature of the experiment: serotonin 5-HT1A receptor binding (displacement of [3H]8-OHDPAT). The text has this: High affinity for the serotonin 5-HT1A receptor was established by testing the claimed compound's ability to displace [^3 H]8-OHDPAT (dipropylaminotetralin) from the 5-HT1A serotonin receptor following the procedure of Hall et al., J. Neurochem. 44, 1685 (1985). […] The anxiolytic activity of buspirone is believed to be, at least partially, due to its 5-HT1A receptor affinity (Vander Maelen et al., Eur. J. Pharmacol., 129 (1-2) 123-130 (1986).
For orientation: Loss of bound radioactivity is the signal in a displacement assay; it reports binding, not function.

The target in experiment [2] is T2, dopamine D-2 receptor (Rattus norvegicus, UniProt P61169).
T2 construct: from tissue; host or cells: limbic brain tissue, homogenized
T2 sequence (P61169 whole entry): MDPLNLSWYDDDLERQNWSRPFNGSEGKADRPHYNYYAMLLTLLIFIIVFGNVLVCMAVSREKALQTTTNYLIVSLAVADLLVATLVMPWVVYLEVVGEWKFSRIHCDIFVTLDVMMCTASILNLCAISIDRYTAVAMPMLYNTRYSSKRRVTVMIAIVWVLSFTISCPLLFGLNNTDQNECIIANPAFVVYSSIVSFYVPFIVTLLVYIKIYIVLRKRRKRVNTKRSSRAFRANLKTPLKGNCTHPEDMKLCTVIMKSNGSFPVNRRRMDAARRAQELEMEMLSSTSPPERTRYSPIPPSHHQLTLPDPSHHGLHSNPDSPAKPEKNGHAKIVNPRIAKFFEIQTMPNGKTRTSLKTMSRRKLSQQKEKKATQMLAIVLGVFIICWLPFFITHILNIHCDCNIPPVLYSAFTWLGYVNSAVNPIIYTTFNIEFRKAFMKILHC
Nature of the experiment: dopamine D-2 receptor binding (displacement of 3H-spiroperidol, homogenized limbic brain tissue). The protocol:
High affinity for the dopamine D-2 receptor was established by the standard experimental test procedure of Fields, et al., Brain Res., 136, 578-584 (1977) and Yamamura et al., eds., Neurotransmitter Receptor Binding, Raven Press, N.Y. (1978) wherein homogenized limbic brain tissue is incubated with ^3 H-spiroperiodol and various concentrations of test compound, filtered and washed and shaken with Hydrofluor scintillation cocktail (National Diagnostics) and counted in a Packard 460 CD scintillation counter.

Experiment [3] can be described thus: conditioned avoidance, shelf-jump response test. The format is in vivo, rat (male CD). Conditions: Rattus norvegicus, no CI, read-out: Avoidance Block AB50, Shelf-jump. The text has this:
(§1) The antipsychotic properties of the compound of Example 5 were further established by standard pharmacologically accepted procedures involving conditioned avoidance studies in which trained male CD rats (Charles River), 400-500 g. body weight are exposed to a fifteen second warning tone (conditioned stimulus) continued for an additional fifteen seconds accompanied by electric shock. The rat can avoid the electric shock by jumping to an exposed shelf (shelf-jump response). A response during the initial warning tone is considered an avoidance response, while a response during shock delivery is considered an escape response. The shelf-jump response test procedure follows that of Herman et. al., Comm. in Psychopharm., 3, pp. 165-171 (1979). A similar test procedure (Discrete Trial) in which a lever press was substituted for a shelf-jump was also used to establish the activity of the compound of Example 5. The compound was tested over a full dose range and the Avoidance Block activities reported as "AB50 's (mg/kg): Shelf-jump: 6.43 (no CI) i.p., 58.28 (no CI) p.o.; Discrete Trial: 4.80 (2.14-17.66) i.p., 35.35 (no CI) p.o.

Experiment [4] is described as follows: conditioned avoidance, Discrete Trial (lever press). It is filed as in vivo, rat (male CD). Conditions: Rattus norvegicus, read-out: Avoidance Block AB50, Discrete Trial.
From the text: as §1

For experiment [5], the target named is T1, serotonin 5-HT1A receptor. Conditions: standard for anxiolytic activity; cited from earlier work.

On to `O=C1C2C3C=CC(C4CC34)C2C(=O)N1CCCCN1CCN(c2nsc3ccccc23)CC1` (stereo not shown) [Example 3, 2-[4-[4-(1,2-Benzisothiazol-3-yl)-1-piperazinyl]butyl]-4,4a,5,5a,6,6a-hexahydro-4,6-ethenocycloprop[f]isoindole-1,3(2H,3aH)-dione], for which the inhibition at 1 µM in experiment [1] is 100%; in experiment [2] it was 99%.

Compound `O=C1C2C3C=CC(C4C=CC43)C2C(=O)N1CCCCN1CCN(c2nsc3ccccc23)CC1` (stereo not shown) [Example 4, 2-[4-[4-(1,2-Benzisothiazol-3-yl)-1-piperazinyl]butyl]3a,4,4a,6a,7,7a-hexahydro-4,7-etheno-1H-cyclobut[f]isoindole-1,3(2H)-dione] returned an inhibition constant Ki in experiment [1] of 0.65 nM. For the same compound, the inhibition at 1 µM in experiment [1] stood at 97%; in experiment [2] it was 95%.

In the case of `O=C1C2CC(C(=O)N1CCCCN1CCN(c3nsc4ccccc34)CC1)C1C2C2C3CC4C2C4C31` (stereo not shown) [Example 5, Decahydro-3-[4-[4-(1,2-benzisothiazol-3-yl)-1-piperazinyl]butyl]-1,5-methano-6,7,9-metheno-2H-pentaleno[1,2-d]azepine-2,4(3H)-dione], the Ki in experiment [1] turned out to be 0.065 nM; in experiment [2], 0.5 nM. In addition, the inhibition at 1 µM in experiment [1] was 96%; in experiment [2], 95%. The ED50 in experiment [3] (ip) turned out to be 6.43 mg/kg; in experiment [3] (po), 58.3 mg/kg; in experiment [4] (ip, CI in parentheses), 4.8 mg/kg; in experiment [4] (po, no CI) it was 35.4 mg/kg.

With `O=C1C2C(C(=O)N1CCCCN1CCN(c3nsc4ccccc34)CC1)C1C3CC4C(C32)C41` (stereo not drawn) [Example 6, (Exo)-octahydro-2-[4-[4-(1,2-benzisothiazol-3-yl)-1-piperazinyl]butyl]-4,5,7-metheno-1H-pentaleno[1,2-c]pyrrole-1,3(1H)-dione], the inhibition at 1 µM in experiment [1] and in experiment [2] was 100% throughout.

As to `O=C1C2C(C(=O)N1CCCCN1CCN(c3nsc4ccccc34)CC1)C1C3CC4C(C32)C41` (stereo not drawn) [Example 7, (Endo)-octahydro-2-[4-[4-(1,2-benzisothiazol-3-yl)-1-piperazinyl]butyl]-4,5,7-metheno-1H-pentaleno[1,2-c]pyrrole-1,3(2H)-dione], the Ki in experiment [1] came out at 0.4 nM. The “5-HT1A Binding (Inhibition at 1 μM)” value in experiment [1] (at 1 μM) is on record as 100%. Moreover, the “D-2 Binding (Inhibition at 1 μM)” value in experiment [2] (at 1 μM) turned out to be 100%.

Consider `O=C1CC2(CCCC2)CC(=O)N1CCCCN1CCN(c2ncccn2)CC1` [buspirone], for which the “affinity for the 5-HT1A serotonin receptor subtype (in words)” value in experiment [5] was “high affinity”.

As a reminder, the inhibition is the change of the read-out against control, counted positive when it falls. Read a low inhibition as a weak effect. By Ki is commonly meant a dissociation constant, usually derived from enzyme kinetics or from competition with a known ligand. Read a low Ki as higher affinity.
